Type in all cases: functional
Assay [1] is described as follows: Antibacterial activity against Photobacterium damselae subsp. piscicida after 18 hrs by serial agar dilution method.
Assay [2] relates to Staphylococcus aureus. Briefly: Antibacterial activity against methicillin resistant Staphylococcus aureus […] after 18 hrs by serial agar dilution method.
Assay [3] concerns Staphylococcus aureus. Briefly: Antibacterial activity against Staphylococcus aureus after 18 hrs by serial agar dilution method.
Assay [4] deals with Micrococcus luteus. The assay can be described thus: Antibacterial activity against Micrococcus luteus after 18 hrs by serial agar dilution method.
The test system of assay [5] is Bacillus subtilis. The assay can be described thus: Antibacterial activity against Bacillus subtilis after 18 hrs by serial agar dilution method.
Assay [6] has as its system Staphylococcus aureus. The assay can be described thus: Antibacterial activity against […] Staphylococcus aureus ATCC 25923 after 18 hrs by serial agar dilution method. The following applies: ATCC 25923, 18 h.

Converted amounts (≈) assume the structure as drawn.

Regarding `C=C1OC(=O)C2=C1O[C@@H]1[C@@H](O)[C@]3(O)CCCC[C@H]3[C@](C)(C2=O)[C@@H]1C`, the MIC lay in the range of 1.56 to 18.7 µg/mL (≈ 4.67 to 55.9 µM) in assay [1]; 18.7 to 37.4 µM in assay [2]; 18.7 to 37.4 µM (≈ 6.25 to 12.5 µg/mL) in assay [3]; 18.7 to 37.4 µM (≈ 6.25 to 12.5 µg/mL) in assay [4]; 18.7 to 37.4 µM (≈ 6.25 to 12.5 µg/mL) in assay [5].
As to `CC1OC(=O)C2=C1O[C@@H]1[C@@H](O)[C@]3(O)CCCC[C@H]3[C@](C)(C2=O)[C@@H]1C` (some centres undefined), the MIC in assay [1] is 50 µg/mL (≈ 149 µM); in assay [2] it was over 100 µg/mL.
As for `CC(=O)NCCCSCC1OC(=O)C2=C1O[C@@H]1[C@@H](O)[C@]3(O)CCCC[C@H]3[C@](C)(C2=O)[C@@H]1C` (some centres undefined), the figures for the MIC in assay [1] and in assay [2] were 6.25 µg/mL (≈ 13.4 µM) and 12.5 µg/mL, respectively.
Molecule `C=C1OC(=O)C2=C1O[C@@H]1C=CC[C@@](C)(C1)C2=O` displayed an MIC in assay [6] of 4 µg/mL (≈ 17.2 µM).
In the case of `C[C@@H]1[C@@H]2OC3=C(C(=O)OC3CSCCO)C(=O)[C@@]1(C)[C@@H]1CCCC[C@@]1(O)[C@@H]2O` (some centres undefined), the MIC in assay [1] amounted to 6.25 µg/mL (≈ 15.2 µM); in assay [2], 25 µg/mL.
In the case of `C=C1OC(=O)C2=C1O[C@H]1C[C@](C)(CC(O)C1OC(=O)c1ccc3ccccc3c1)C2=O` (some centres undefined), in assay [6], 8 µg/mL (≈ 19 µM) was the least that counted as inhibitory (MIC).
Consider `C[C@@H]1[C@@H]2OC3=C(C(=O)OC3(Br)CBr)C(=O)[C@@]1(C)[C@@H]1CCCC[C@@]1(O)[C@@H]2O` (some centres undefined), for which the figures for the MIC in assay [1] and in assay [2] were 12.5 µg/mL (≈ 25.3 µM) and over 100 µg/mL, respectively.
For `C=C1OC(=O)C2=C1O[C@H]1C[C@](C)(CC(O)C1O)C2=O` (some centres undefined), in assay [6], the MIC was over 128 µg/mL.
As to `C=C1OC(=O)C2=C1O[C@@H]1[C@@H](OC(=O)c3ccc4ccccc4c3)[C@]3(O)CCCC[C@H]3[C@](C)(C2=O)[C@@H]1C`, the results for the MIC in assay [1] and in assay [2] were over 100 µg/mL and 1.61 µM, respectively.
Molecule `C=C1OC(=O)C2=C1O[C@H]1C[C@](C)(CC(OC(=O)c3ccc4ccccc4c3)C1O)C2=O` (some centres undefined) showed an MIC in assay [6] of 128 µg/mL (≈ 304 µM).
